# Assays:
# MCF7 cells [1] = assay: Seahorse XF96 metabolic flux analysis (OCR/ECAR); format: cell-based, human; settings: for rank order potency to reduce maximal respiration and ATP production: top 10 hits, FIG. 10; for effect on glycolysis: ECAR; for inhibition of mitochondrial oxygen-consumption: FIGS. 7, 8 and 9
# From the text: The present approach further involves methods of functional validation at step S105, during which a compound's function as a mitochondrial inhibitor may be confirmed. A number of methods may be used for functional validation, including, for example, metabolic flux analysis, mammosphere assays, viability assays, and antibiotic (anti-bacterial and/or anti-fungal) activity. For example, the inventors determined extracellular acidification rates (ECAR) and real-time oxygen consumption rates (OCR) for MCF7 cells using the Seahorse Extracellular Flux (XF96) analyzer (Seahorse Bioscience, MA, USA). MCF7 cells were maintained in DMEM supplemented with 10% FBS (fetal bovine serum), 2 mM GlutaMAX, and 1% Pen-Strep. 5,000 cells per well were seeded into XF96-well cell culture plates, and incubated overnight at 37° C. in a 5% CO2 humidified atmosphere. After 24 hours, cells were treated with selected compounds showing ATP-depletion without prominent cytotoxicity at various concentrations (or vehicle alone). After 72 hours of treatment, cells were washed in pre-warmed XF assay media (for OCR measurement, XF assay media was supplemented with 10 mM glucose, 1 mM Pyruvate, 2 mM L-glutamine and adjusted at pH 7.4). Cells were maintained in 175 μL/well of XF assay media at 37° C. in a non-CO2 incubator for 1 hour. During incubation, 25 μL of 80 mM glucose, 9 μM oligomycin, 1M 2-deoxyglucose (for ECAR measurement) and 25 μL of 10 μM oligomycin, 9 μM FCCP, 10 μM rotenone, 10 μM antimycin A (for OCR measurement) in XF assay media was loaded into the injection ports of the XFe-96 sensor cartridge. During the experiment, the instrument injected these inhibitors into the wells at a given time point, while ECAR/OCR was measured continuously. ECAR and OCR measurements were normalized by protein content (using the Sulphorhodamine B assay). Data sets were analyzed by XFe-96 software, using one-way ANOVA and Student's t-test calculations. All experiments were performed in triplicate, and results validated the mitochondrial inhibition effects of mitoriboscin compounds described herein. It should be appreciated that numerous methods are known for functional validation, and that persons of skill in the art may select one or more depending on the validation needs (e.g., other assays that measure or approximate mitochondrial function). The present approach involves methods of function validation of mitoriboscin compounds. For example, the inventors assessed functional validation of three candidates using the Seahorse Analyzer, which quantitatively measures oxygen consumption rate (OCR) and extracellular acidification rate (ECAR). OCR is a surrogate marker for OXPHOS and ECAR is a surrogate marker for glycolysis and L-lactate production.
# C. albicans = assay: MIC by broth dilution method; format: cell-based; settings: C. albicans ATCC 13883
# Procedure: (§1) The minimal inhibitory concentration (MIC) of the antibacterial compounds may be determined using the broth dilution method, according to CLSI guidelines. Test compound solutions (or antibiotic solutions used as positive controls) were diluted, serially, with MHB medium. Then, the suspensions of the microorganisms, prepared from overnight cultures of bacteria in the MHB medium, at a concentration of 10^6 CFU/ml, were added to each dilution in a 1:1 ratio. McFarland standards were used as a reference to adjust the turbidity of microorganism suspensions. Growth (or lack thereof) of the microorganisms was determined after incubation for 24 hours at 37° C. by turbidimetry (wavelength of 600 nm). MIC 50 and MIC 99 are defined as the minimum inhibitory concentration of the compound required for 50% and 99% inhibition of bacterial growth. […] The susceptibility test by measurement of MIC was performed in triplicate and repeated three times independently. Statistical significance was determined using the Student's t-test and values of less than 0.05 were considered significant.
# (§2) In order to determine the minimal inhibitory concentration (MIC) for 24/F9, 24/D4 and 23/G4, the broth dilution method may be performed.
# MCF7 cells [2] = assay: Mammosphere formation assay; format: cell-based, human; settings: 5 μM, FIG. 5
# From the text: The present approach involves methods of testing compounds, and in particular mitoriboscins, for anti-cancer properties. As discussed above, vHTS and computational chemistry may be used to identify candidate mitochondrial inhibitors. Those candidates may be tested for specific anti-cancer properties. For examples, the inventors compared seven candidate compounds in parallel for their ability to inhibit mammosphere formation in MCF7 cells. […] For example, 23/G4 (Group 1) reduced mammosphere formation by 50% at this concentration. Similarly, 24/F9 (Group 2) and 24/D4 (Group 3), both reduced mammosphere formation by ˜90%.
# [3] = tested on: Strept. pyogenes ATCC 19615; assay: MIC by broth dilution method; format: cell-based; settings: for MIC50 / MIC99: Streptococcus pyogenes, ATCC19615
# Procedure: as §1, with “nm).” for “nm). MIC 50 and MIC 99 are defined as the minimum inhibitory concentration of the compound required for 50% and 99% inhibition of bacterial growth.”, “independently.” for “independently. Statistical significance was determined using the Student's t-test and values of less than 0.05 were considered significant.”
# [4] = tested on: Staph. aureus ATCC 25923 (MSSA); assay: MIC by broth dilution method; format: cell-based; settings: for MIC50 / MIC99: Staphylococcus aureus
# Procedure: as §1, with “nm).” for “nm). MIC 50 and MIC 99 are defined as the minimum inhibitory concentration of the compound required for 50% and 99% inhibition of bacterial growth.”, “independently.” for “independently. Statistical significance was determined using the Student's t-test and values of less than 0.05 were considered significant.”
# K. pneumoniae ATCC 13883 = assay: MIC by broth dilution method; format: cell-based; settings: for MIC50 / MIC99: Klebsiella pneumoniae, ATCC13883
# Procedure: as §1, with “nm).” for “nm). MIC 50 and MIC 99 are defined as the minimum inhibitory concentration of the compound required for 50% and 99% inhibition of bacterial growth.”, “independently.” for “independently. Statistical significance was determined using the Student's t-test and values of less than 0.05 were considered significant.”
# E. coli ATCC 25922 = assay: MIC by broth dilution method; format: cell-based; settings: E. coli ATCC 25922, 24 hours at 37° C.; for MIC50 / MIC99: Escherichia coli, ATCC25922
# Procedure: as §1, with “nm).” for “nm). MIC 50 and MIC 99 are defined as the minimum inhibitory concentration of the compound required for 50% and 99% inhibition of bacterial growth.”, “independently.” for “independently. Statistical significance was determined using the Student's t-test and values of less than 0.05 were considered significant.”
# MRSA ATCC 43300 = assay: MIC by broth dilution method; format: cell-based, Methicillin-resistant Staphylococcus aureus; settings: for sensitivity of MRSA: summary of Table 4
# Procedure: as §1, §2
# P. auriginosa ATCC 27853 = assay: MIC by broth dilution method; format: cell-based, P. aeruginosa; settings: for MIC50 / MIC99: Pseudomonas aeruginosa, ATCC27853
# Procedure: as §1, with “nm).” for “nm). MIC 50 and MIC 99 are defined as the minimum inhibitory concentration of the compound required for 50% and 99% inhibition of bacterial growth.”, “independently.” for “independently. Statistical significance was determined using the Student's t-test and values of less than 0.05 were considered significant.”
# [5] = Staph. aureus ATCC 25923 (Table 3)
# [6] = Staphylococcus aureus, MRSA ATCC 43300
SMILES,MIC 50% ([4]; MSSA ATCC 25923 (Table 4)) [mg/L],MIC 99% ([4]; MSSA ATCC 25923 (Table 4)) [mg/L],MIC50 [3] [mg/L],MIC99 [3] [mg/L],"MIC50 [4, 5] [mg/L]","MIC99 [4, 5] [mg/L]",MIC50 (K. pneumoniae ATCC 13883) [mg/L],MIC99 (K. pneumoniae ATCC 13883) [mg/L],MIC50 (E. coli ATCC 25922) [mg/L],MIC99 (E. coli ATCC 25922) [mg/L],MIC50 (P. auriginosa ATCC 27853) [mg/L],MIC99 (P. auriginosa ATCC 27853) [mg/L],rank order potency to reduce maximal respiration and ATP production (MCF7 cells [1]),further results
OC1C(NCc2ccccc2)CCCC1Oc1ccccc1Oc1cccc(F)c1 (centres unmarked) [23/E9],,,,,,,,,,,,,top 6,
CN1CCCN(C2CCN(Cc3cc(Cl)ccc3OCc3ccccc3)CCC2O)CC1 (centres unmarked) [24/H6],,,,,,,,,,,,,top 6,
CN(C)C1CC2(CCN(Cc3cc(Cl)ccc3OCc3ccccc3)CC2)OCC1(C)O (centres unmarked) [24/H9],,,,,,,,,,,,,top 6,
CN(C)Cc1cccc(C2CCCN2Cc2ccccc2OCc2cccc(F)c2)n1 (centres unmarked) [25/B3],,,,,,,,,,,,,top 6,
"CC1(C)S[C@@H]2[C@H](NC(=O)[C@H](N)c3ccc(O)cc3)C(=O)N2[C@H]1C(=O)O [AMOXICILLIN, reference compound]",4,8,4,8,4,8,32,> 64,16,> 32,128,256,,sensitivity of MRSA (MRSA ATCC 43300): resistant; MIC50 (MRSA ATCC 43300; [6]): > 64 mg/L; MIC99 (MRSA ATCC 43300; [6]): > 64 mg/L
"C[C@H]1c2cccc(O)c2C(=O)C2=C(O)[C@]3(O)C(=O)C(C(N)=O)=C(O)[C@@H](N(C)C)[C@@H]3[C@@H](O)[C@@H]21 [DOXYCYCLINE, reference compound]",,,0.5,1,0.5,1,2,4,0.5,2,1,2,,"MIC99 (C. albicans; Candida albicans, ATCC13883): > 64 mg/L"
"Clc1ccc(COC(Cn2ccnc2)c2ccc(Cl)cc2Cl)c(Cl)c1 (centres unmarked) [MICONAZOLE, reference compound]",,,,,,,,,,,,,,"MIC50 (C. albicans; Candida albicans, ATCC13883): 0.5 mg/L; MIC99 (C. albicans; Candida albicans, ATCC13883): 1 mg/L"

# More lines, main results first:
MIC 50% ([4]; MSSA ATCC 25923 (Table 4)) [mg/L],MIC 99% ([4]; MSSA ATCC 25923 (Table 4)) [mg/L],MIC50 [3] [mg/L],MIC99 [3] [mg/L],"MIC50 [4, 5] [mg/L]","MIC99 [4, 5] [mg/L]",MIC50 (K. pneumoniae ATCC 13883) [mg/L],MIC99 (K. pneumoniae ATCC 13883) [mg/L],MIC50 (E. coli ATCC 25922) [mg/L],MIC99 (E. coli ATCC 25922) [mg/L],MIC50 (P. auriginosa ATCC 27853) [mg/L],MIC99 (P. auriginosa ATCC 27853) [mg/L],SMILES,rank order potency to reduce maximal respiration and ATP production (MCF7 cells [1]),further results
16,32,,,,,,,,,,,CCCc1ccc(OCc2ccccc2)c(CN2CCC3(CC2)CC(N(C)C)C(C)(O)CO3)c1 (centres unmarked) [24/D4],,"MIC 99% (C. albicans): >64 mg/L; effect on glycolysis (MCF7 cells [1]): suppressed glycolysis; inhibition of mitochondrial oxygen-consumption (MCF7 cells [1]): dose-dependently inhibited; reduction of mammosphere formation (MCF7 cells [2]): ~90%; MIC 50% [3]: 16 mg/L; MIC 99% [3]: 32 mg/L; MIC 50% [4, 5]: 16 mg/L; MIC 99% [4, 5]: 32 mg/L; MIC 50% (K. pneumoniae ATCC 13883): 16 mg/L; MIC 99% (K. pneumoniae ATCC 13883): 32 mg/L; MIC 50% (E. coli ATCC 25922): 16 mg/L; MIC 99% (E. coli ATCC 25922): 32 mg/L; MIC 50% (MRSA ATCC 43300; MRSA ATCC 43300): 16 mg/L; MIC 99% (MRSA ATCC 43300; MRSA ATCC 43300): >32 mg/L; sensitivity of MRSA (MRSA ATCC 43300): sensitive; MIC 50% (P. auriginosa ATCC 27853): 16 mg/L; MIC 99% (P. auriginosa ATCC 27853): 32 mg/L"
32,64,,,,,,,,,,,CN1CCN(C2CCN(Cc3cc(C(C)(C)C)ccc3OCc3ccccc3)CCC2O)CC1 (centres unmarked) [24/F9],top 6,"MIC 99% (C. albicans): >64 mg/L; effect on glycolysis (MCF7 cells [1]): suppressed glycolysis; inhibition of mitochondrial oxygen-consumption (MCF7 cells [1]): dose-dependently inhibited; reduction of mammosphere formation (MCF7 cells [2]): ~90%; MIC 50% [3]: 32 mg/L; MIC 99% [3]: 64 mg/L; MIC 50% [4, 5]: 32 mg/L; MIC 99% [4, 5]: 64 mg/L; MIC 50% (K. pneumoniae ATCC 13883): 32 mg/L; MIC 99% (K. pneumoniae ATCC 13883): 64 mg/L; MIC 50% (E. coli ATCC 25922): 32 mg/L; MIC 99% (E. coli ATCC 25922): 64 mg/L; MIC 50% (MRSA ATCC 43300; MRSA ATCC 43300): 64 mg/L; MIC 99% (MRSA ATCC 43300; MRSA ATCC 43300): >64 mg/L; MIC 50% (P. auriginosa ATCC 27853): >32 mg/L; MIC 99% (P. auriginosa ATCC 27853): >64 mg/L"
,,1,2,1,2,128,256,128,> 128,64,256,"CC(=O)NC[C@H]1CN(c2ccc(N3CCOCC3)c(F)c2)C(=O)O1 [LINEZOLID, reference compound]",,
